# Assay results: PMC10323144, “Garbage in, garbage out: how reliable training data improved a virtual screening approach against SARS-CoV-2 MPro” (Frontiers in Pharmacology, 2023)
# Square brackets hold non-standard residues; d marks the D form. Peptide text beside a SMILES is read from it. * marks the point of attachment. ξ: configuration not given here. Boc = CC(C)(C)OC(=O)*; ξV = CC(C)C(N)C(=O)O; GABA = NCCCC(=O)O; ξA = CC(N)C(=O)O; Sar = CNCC(=O)O; tBu = CC(C)(C)*
# Biological target: SARS-CoV-2 MPro (Severe acute respiratory syndrome coronavirus 2, UniProt P0DTD1)
# Experiment: MPro activity assay (de-quenching of Edans fluorescence on cleavage of a Dabcyl/Edans peptide)
# Type: biochemical
# Settings: 10 μM or 25 μM compound
row,SMILES,% activity MPro at 10 μM or 25 μM [%]
1,"Oc1cc(O)c2c(c1)O[C@H](c1ccc(O)c(O)c1)[C@H](O)C2 [4b, epicatechin]",88.7 ± 0.6

# Same assay, conditions: 25 μM where stated
row,SMILES,activity against MPro (in words)
1,"Oc1cc(O)c2c(c1)O[C@H](c1ccc(O)c(O)c1)[C@H](O)C2 [4b, epicatechin]",negligible activity

# Same assay, conditions: 60 min pre-incubation, 5 μM substrate
row,SMILES,IC50 [µM]
1,COC(=O)[C@@H](Cc1ccccc1)NC(=O)C(C)NC(=O)[C@@H](NC(=O)C(NC(=O)CCCNC(=O)OC(C)(C)C)C(C)C)C(C)C (stereo partly shown) [2a] ({Boc-GABA}-[ξV]V[ξA][dF]-OMe),32.1 ± 1.4

# Same assay, conditions: in-house acquired data, internal screening under standardized conditions (128 compounds)
row,SMILES,Class (MPro activity class)
1,CC(=NNC(=S)Nc1ccccc1)c1c(O)c2ccccc2oc1=O [COV19143],"0 (compounds with IC50 > 20 μM, percentage inhibition <80% at 20 µM or 50 μM, or percentage enzyme inhibition <50% at 10 µM were labelled as INACTIVE)"
2,CC(OC(C)(C)C)C1NC(=O)CN(C)C(=O)C(Cc2ccccc2)NC(=O)CN(C)C1=O (stereo not shown) [vCOV194214] (cyclo([Sar]F[Sar]T(tBu)); configuration not given here),"0 (compounds with IC50 > 20 μM, percentage inhibition <80% at 20 µM or 50 μM, or percentage enzyme inhibition <50% at 10 µM were labelled as INACTIVE)"
3,Cc1ccc(-n2sc3cc(Cl)cc(C)c3c2=O)cc1 [COV19018],1 (Compounds with IC50 < 10 µM or with a percentage of enzyme inhibition >50% at 10 µM were labelled as ACTIVE)
4,CCOC(=O)C(=O)NC1CCc2nc(NC(=O)c3cc(Cl)c(Cl)[nH]3)sc2C1 (stereo not shown) [Cpd 50],"0 (compounds with IC50 > 20 μM, percentage inhibition <80% at 20 µM or 50 μM, or percentage enzyme inhibition <50% at 10 µM were labelled as INACTIVE)"
5,Cc1ccc(NC(=O)c2c(C)cc(Cl)cc2I)cc1 [COV19038],"0 (compounds with IC50 > 20 μM, percentage inhibition <80% at 20 µM or 50 μM, or percentage enzyme inhibition <50% at 10 µM were labelled as INACTIVE)"
6,Cc1ccc2nc(N3C(=O)C(O)=C(C(=O)c4ccc5c(c4)OCCO5)C3c3ccc(O)cc3)sc2c1 (stereo not shown) [AD82],"0 (compounds with IC50 > 20 μM, percentage inhibition <80% at 20 µM or 50 μM, or percentage enzyme inhibition <50% at 10 µM were labelled as INACTIVE)"
7,COc1ccc(C2C(C(=O)c3ccc4c(c3)OCCO4)=C(O)C(=O)N2c2nc3ccc(OC)cc3s2)cc1 (stereo not shown) [ADKPN160],"0 (compounds with IC50 > 20 μM, percentage inhibition <80% at 20 µM or 50 μM, or percentage enzyme inhibition <50% at 10 µM were labelled as INACTIVE)"
8,O=C(C1=C(O)C(=O)N(c2nc3ccc(Cl)cc3s2)C1c1ccccc1)c1ccc2c(c1)OCCO2 (stereo not shown) [ADRMC159],"0 (compounds with IC50 > 20 μM, percentage inhibition <80% at 20 µM or 50 μM, or percentage enzyme inhibition <50% at 10 µM were labelled as INACTIVE)"
9,Cc1c(C(=O)Nc2ccccc2)[n+]([O-])c2cc(CN(C)CC=Cc3ccccc3)ccc2[n+]1[O-] [COV19291],"0 (compounds with IC50 > 20 μM, percentage inhibition <80% at 20 µM or 50 μM, or percentage enzyme inhibition <50% at 10 µM were labelled as INACTIVE)"
10,O=C(C1=C(O)C(=O)N(c2nc3ccccc3s2)C1c1ccc(F)cc1)c1ccc2c(c1)OCCO2 (stereo not shown) [ADKPN161],"0 (compounds with IC50 > 20 μM, percentage inhibition <80% at 20 µM or 50 μM, or percentage enzyme inhibition <50% at 10 µM were labelled as INACTIVE)"
11,COc1ccc(C2C(C(=O)c3ccc4c(c3)OCCO4)=C(O)C(=O)N2c2nc3ccc(Cl)cc3s2)cc1OC (stereo not shown) [ADRMC157],"0 (compounds with IC50 > 20 μM, percentage inhibition <80% at 20 µM or 50 μM, or percentage enzyme inhibition <50% at 10 µM were labelled as INACTIVE)"
12,Cc1cccc(Cl)c1-n1sc2ccccc2c1=O [COV19011],1 (Compounds with IC50 < 10 µM or with a percentage of enzyme inhibition >50% at 10 µM were labelled as ACTIVE)

# Same assay, conditions: read-out: MPro activity (%)
row,SMILES,activity at 25 µM [%]
1,[O-][n+]1onc2ccc(/C=C\Sc3ccc(F)cc3)cc21 [9d],81.4 ± 21.5
2,[O-][n+]1onc2ccc(/C=C\c3ccc4c(c3)OCO4)cc21 [15d],67.4 ± 1.8

# Test system: MPro
# Experiment: not given
# Settings: compiled from peer-reviewed sources (287 compounds) ref the 18 original articles; cited from earlier work
row,SMILES,Class (MPro activity class)
1,COC(=O)C1=CO[C@@H](O[C@@H]2O[C@H](CO)[C@@H](O)[C@H](O)[C@H]2O)[C@@H]2[C@@H](C)[C@@H](O)C[C@H]12 [Loganin],"0 (compounds with IC50 > 20 μM, percentage inhibition <80% at 20 µM or 50 μM, or percentage enzyme inhibition <50% at 10 µM were labelled as INACTIVE)"
2,C[C@@H]1CCN(C(=O)CC#N)C[C@@H]1N(C)c1ncnc2[nH]ccc12 [Tofacitinib],"0 (compounds with IC50 > 20 μM, percentage inhibition <80% at 20 µM or 50 μM, or percentage enzyme inhibition <50% at 10 µM were labelled as INACTIVE)"
3,CC(C)CC1CN(C(=O)CCl)CCN1Cc1cccc(Cl)c1 (stereo not shown) [DAN-LON-a5fc619e-3],1 (Compounds with IC50 < 10 µM or with a percentage of enzyme inhibition >50% at 10 µM were labelled as ACTIVE)
4,CCCc1ccc(OCC(=O)N(Cc2nc(-c3cccnc3)no2)C(C)C)cc1 [PI-1840],"0 (compounds with IC50 > 20 μM, percentage inhibition <80% at 20 µM or 50 μM, or percentage enzyme inhibition <50% at 10 µM were labelled as INACTIVE)"
5,Cc1ccncc1NC(=O)Cc1cccc(C#N)c1 [TRY-UNI-714a760b-20],"0 (compounds with IC50 > 20 μM, percentage inhibition <80% at 20 µM or 50 μM, or percentage enzyme inhibition <50% at 10 µM were labelled as INACTIVE)"
6,O=C1c2ccccc2NC(c2cc(Cl)ccc2O)N1N=Cc1cc(Cl)ccc1O (stereo not shown) [QZ2],1 (Compounds with IC50 < 10 µM or with a percentage of enzyme inhibition >50% at 10 µM were labelled as ACTIVE)
7,Cc1cnc(C(=O)N[C@H]2CCCCC/C=C\[C@@H]3C[C@@]3(C(=O)NS(=O)(=O)C3CC3)NC(=O)[C@@H]3C[C@@H](Oc4nc5ccccc5c5ccccc45)CN3C2=O)cn1 [Paritaprevir],"0 (compounds with IC50 > 20 μM, percentage inhibition <80% at 20 µM or 50 μM, or percentage enzyme inhibition <50% at 10 µM were labelled as INACTIVE)"
8,CCC[C@@]1(CCc2ccccc2)CC(O)=C([C@H](CC)c2cccc(NS(=O)(=O)c3ccc(C(F)(F)F)cn3)c2)C(=O)O1 [Tipranavir],"0 (compounds with IC50 > 20 μM, percentage inhibition <80% at 20 µM or 50 μM, or percentage enzyme inhibition <50% at 10 µM were labelled as INACTIVE)"
9,O=C(O)c1nn(Cc2ccc(Cl)cc2Cl)c2ccccc12 [LONIDAMINE],"0 (compounds with IC50 > 20 μM, percentage inhibition <80% at 20 µM or 50 μM, or percentage enzyme inhibition <50% at 10 µM were labelled as INACTIVE)"
10,CCOC(=O)c1nc(S(C)(=O)=O)ncc1Cl [LON-WEI-ff7b210a-5],1 (Compounds with IC50 < 10 µM or with a percentage of enzyme inhibition >50% at 10 µM were labelled as ACTIVE)
11,O=C(O)CNC(=O)c1ncc(-c2cccc(Cl)c2)cc1O,"0 (compounds with IC50 > 20 μM, percentage inhibition <80% at 20 µM or 50 μM, or percentage enzyme inhibition <50% at 10 µM were labelled as INACTIVE)"
12,CNC(=O)[C@H](Cc1ccccc1)NC(=O)[C@H](CC(C)C)[C@H](CSc1cccs1)C(=O)NO [Batimastat],"0 (compounds with IC50 > 20 μM, percentage inhibition <80% at 20 µM or 50 μM, or percentage enzyme inhibition <50% at 10 µM were labelled as INACTIVE)"
13,CC(C)CN(C[C@@H](O)[C@H](Cc1ccccc1)NC(=O)O[C@H]1CO[C@H]2OCC[C@H]21)S(=O)(=O)c1ccc(N)cc1 [Darunavir],"0 (compounds with IC50 > 20 μM, percentage inhibition <80% at 20 µM or 50 μM, or percentage enzyme inhibition <50% at 10 µM were labelled as INACTIVE)"
14,CC(C)C[C@H](NC(=O)[C@@H](NC(=O)c1cccc(-c2ccccc2)n1)[C@@H](C)O)B(O)O [delanzomib],"0 (compounds with IC50 > 20 μM, percentage inhibition <80% at 20 µM or 50 μM, or percentage enzyme inhibition <50% at 10 µM were labelled as INACTIVE)"
15,COC(=O)N[C@H](C(=O)N1CCC[C@H]1c1nc2cc([C@H]3CC[C@H](c4cc5nc([C@@H]6CCCN6C(=O)[C@@H](NC(=O)OC)[C@@H](C)OC)[nH]c5cc4F)N3c3cc(F)c(N4CCC(c5ccc(F)cc5)CC4)c(F)c3)c(F)cc2[nH]1)[C@@H](C)OC [Pibrentasvir],"0 (compounds with IC50 > 20 μM, percentage inhibition <80% at 20 µM or 50 μM, or percentage enzyme inhibition <50% at 10 µM were labelled as INACTIVE)"
16,C[C@]12CC[C@H]3[C@@H](CC[C@@]45O[C@@H]4C(O)=C(C#N)C[C@]35C)[C@@H]1CC[C@@H]2O [Trilostane],"0 (compounds with IC50 > 20 μM, percentage inhibition <80% at 20 µM or 50 μM, or percentage enzyme inhibition <50% at 10 µM were labelled as INACTIVE)"
17,C=C[C@H]1[C@H](O[C@@H]2O[C@H](CO)[C@@H](O)[C@H](O)[C@H]2O)OC=C(C(=O)OC)[C@H]1CC(=O)O [Secoxyloganin],"0 (compounds with IC50 > 20 μM, percentage inhibition <80% at 20 µM or 50 μM, or percentage enzyme inhibition <50% at 10 µM were labelled as INACTIVE)"
18,CC(=O)c1cc([N+](=O)[O-])c(Sc2ccc(F)cc2F)s1 [P22077],"0 (compounds with IC50 > 20 μM, percentage inhibition <80% at 20 µM or 50 μM, or percentage enzyme inhibition <50% at 10 µM were labelled as INACTIVE)"
19,CCc1nc(-c2cccc(C)c2)c(-c2ccnc(NC(=O)c3ccccc3)c2)s1 [TAK-715],"0 (compounds with IC50 > 20 μM, percentage inhibition <80% at 20 µM or 50 μM, or percentage enzyme inhibition <50% at 10 µM were labelled as INACTIVE)"
20,O=C(C=Cc1ccccc1)NC(CC1CCCCC1)C(=O)NC(CC1CCNC1=O)C(=O)C(=O)NCc1ccccc1 (stereo not shown) [compound 11r],1 (Compounds with IC50 < 10 µM or with a percentage of enzyme inhibition >50% at 10 µM were labelled as ACTIVE)
21,CCCC(NC(=O)C(CC(C)C)NC(=O)OCc1ccccc1)C(=O)C(=O)NCc1ccccn1 (stereo not shown) [Calpain inhibitor XII],1 (Compounds with IC50 < 10 µM or with a percentage of enzyme inhibition >50% at 10 µM were labelled as ACTIVE)
22,N#C[C@@H]1C[C@@H]2C[C@@H]2N1C(=O)[C@@H](N)C12CC3CC(CC(O)(C3)C1)C2 [Saxagliptin],"0 (compounds with IC50 > 20 μM, percentage inhibition <80% at 20 µM or 50 μM, or percentage enzyme inhibition <50% at 10 µM were labelled as INACTIVE)"
23,CCCC[C@H](NC(=O)[C@@H]1[C@@H]2[C@H](CN1C(=O)[C@@H](NC(=O)NC1(CS(=O)(=O)C(C)(C)C)CCCCC1)C(C)(C)C)C2(C)C)C(=O)C(=O)NC1CC1 [Narlaprevir],1 (Compounds with IC50 < 10 µM or with a percentage of enzyme inhibition >50% at 10 µM were labelled as ACTIVE)
